Reference: the supplement of paper PMC10307832

Legend:
Experiment in all cases: relative viability (nuclei count vs DMSO), 5 days (fraction); higher = more cells survive
Crizotinib + OSI-027 = compound: C[C@@H](Oc1cc(-c2cnn(C3CCNCC3)c2)cnc1N)c1c(Cl)ccc(F)c1Cl [Crizotinib] + COc1cccc2cc(-c3nc([C@H]4CC[C@H](C(=O)O)CC4)n4ncnc(N)c34)[nH]c12 [OSI-027] (partner 0.5 µM)
Procedure, shortened: (§1)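 Relative viability was taken as the ratio of nuclei in treated wells to nuclei in vehicle wells. Lung cancer cell lines in 1536-well plates received compounds by pin tool one day after seeding, either one drug alone or a fixed anchor-drug dose plus five library-drug doses (not always all listed) in √10 steps. Nuclei were counted on 4× images after 5 days of treatment, and values are medians of duplicate plates.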

Carfilzomib + Trametinib = compound: CC(C)C[C@H](NC(=O)[C@H](CCc1ccccc1)NC(=O)CN1CCOCC1)C(=O)N[C@@H](Cc1ccccc1)C(=O)N[C@@H](CC(C)C)C(=O)[C@@]1(C)CO1 [Carfilzomib] + CC(=O)Nc1cccc(-n2c(=O)n(C3CC3)c(=O)c3c(Nc4ccc(I)cc4F)n(C)c(=O)c(C)c32)c1 [Trametinib] (partner 0.02 µM)
Procedure, shortened: as §1

Crizotinib + Pictilisib = compound: C[C@@H](Oc1cc(-c2cnn(C3CCNCC3)c2)cnc1N)c1c(Cl)ccc(F)c1Cl [Crizotinib] + CS(=O)(=O)N1CCN(Cc2cc3nc(-c4cccc5[nH]ncc45)nc(N4CCOCC4)c3s2)CC1 [Pictilisib] (partner 1 µM)
Procedure, shortened: as §1

Olaparib + AZD7762 = compound: O=C(c1cc(Cc2n[nH]c(=O)c3ccccc23)ccc1F)N1CCN(C(=O)C2CC2)CC1 [Olaparib] + NC(=O)Nc1cc(-c2cccc(F)c2)sc1C(=O)N[C@H]1CCCNC1 [AZD7762] (partner 0.2 µM)
Procedure, shortened: as §1

## 201T
Crizotinib + OSI-027; first compound 0.01 µM
  relative viability: 0.635
Crizotinib + OSI-027; first compound 0.03162 µM
  relative viability: 0.744
Crizotinib + OSI-027; first compound 0.1 µM
  relative viability: 0.668
Crizotinib + OSI-027; first compound 0.3162 µM
  relative viability: 0.77
Crizotinib + OSI-027; first compound 1 µM
  relative viability: 0.698
Carfilzomib + Trametinib; first compound 0.001 µM
  relative viability: 0.712
Carfilzomib + Trametinib; first compound 0.003162 µM
  relative viability: 0.705
Carfilzomib + Trametinib; first compound 0.01 µM
  relative viability: 0.718
Carfilzomib + Trametinib; first compound 0.03162 µM
  relative viability: 0.734
Carfilzomib + Trametinib; first compound 0.1 µM
  relative viability: 0.679
Crizotinib + Pictilisib; first compound 0.01 µM
  relative viability: 0.65
Crizotinib + Pictilisib; first compound 0.03162 µM
  relative viability: 0.74
Crizotinib + Pictilisib; first compound 0.1 µM
  relative viability: 0.723
Crizotinib + Pictilisib; first compound 0.3162 µM
  relative viability: 0.648
Crizotinib + Pictilisib; first compound 1 µM
  relative viability: 0.678
Olaparib + AZD7762; first compound 0.08 µM
  relative viability: 0.641
Olaparib + AZD7762; first compound 0.253 µM
  relative viability: 0.609
Olaparib + AZD7762; first compound 2.53 µM
  relative viability: 0.522
Olaparib + AZD7762; first compound 8 µM
  relative viability: 0.383

## A549
Crizotinib + Pictilisib; first compound 0.01 µM
  relative viability: 0.558
Crizotinib + Pictilisib; first compound 0.03162 µM
  relative viability: 0.439
Crizotinib + Pictilisib; first compound 0.1 µM
  relative viability: 0.521
Crizotinib + Pictilisib; first compound 0.3162 µM
  relative viability: 0.543
Crizotinib + Pictilisib; first compound 1 µM
  relative viability: 0.53

## A-427
Crizotinib + OSI-027; first compound 0.01 µM
  relative viability: 0.352
Crizotinib + OSI-027; first compound 0.03162 µM
  relative viability: 0.447
Crizotinib + OSI-027; first compound 0.1 µM
  relative viability: 0.414
Crizotinib + OSI-027; first compound 1 µM
  relative viability: 0.441
Carfilzomib + Trametinib; first compound 0.001 µM
  relative viability: 0.83
Carfilzomib + Trametinib; first compound 0.003162 µM
  relative viability: 0.744
Carfilzomib + Trametinib; first compound 0.01 µM
  relative viability: 0.755
Carfilzomib + Trametinib; first compound 0.03162 µM
  relative viability: 0.528
Carfilzomib + Trametinib; first compound 0.1 µM
  relative viability: 0.201
Crizotinib + Pictilisib; first compound 0.01 µM
  relative viability: 0.529
Crizotinib + Pictilisib; first compound 0.03162 µM
  relative viability: 0.655
Crizotinib + Pictilisib; first compound 0.1 µM
  relative viability: 0.668
Crizotinib + Pictilisib; first compound 1 µM
  relative viability: 0.675
Olaparib + AZD7762; first compound 0.08 µM
  relative viability: 0.786
Olaparib + AZD7762; first compound 0.253 µM
  relative viability: 0.671
Olaparib + AZD7762; first compound 2.53 µM
  relative viability: 0.579
Olaparib + AZD7762; first compound 8 µM
  relative viability: 0.427

## ABC-1
Crizotinib + OSI-027; first compound 0.03162 µM
  relative viability: 0.526
Crizotinib + OSI-027; first compound 0.1 µM
  relative viability: 0.426
Crizotinib + OSI-027; first compound 0.3162 µM
  relative viability: 0.422
Crizotinib + OSI-027; first compound 1 µM
  relative viability: 0.402
Crizotinib + Pictilisib; first compound 0.01 µM
  relative viability: 0.54
Crizotinib + Pictilisib; first compound 0.03162 µM
  relative viability: 0.781
Crizotinib + Pictilisib; first compound 0.1 µM
  relative viability: 0.588
Crizotinib + Pictilisib; first compound 0.3162 µM
  relative viability: 0.743
Crizotinib + Pictilisib; first compound 1 µM
  relative viability: 0.728
Olaparib + AZD7762; first compound 0.08 µM
  relative viability: 0.799
Olaparib + AZD7762; first compound 0.253 µM
  relative viability: 0.75
Olaparib + AZD7762; first compound 2.53 µM
  relative viability: 0.842
Olaparib + AZD7762; first compound 8 µM
  relative viability: 0.691

## BEN
Crizotinib + OSI-027; first compound 0.01 µM
  relative viability: 0.308
Crizotinib + OSI-027; first compound 0.03162 µM
  relative viability: 0.3
Crizotinib + OSI-027; first compound 0.1 µM
  relative viability: 0.296
Crizotinib + OSI-027; first compound 0.3162 µM
  relative viability: 0.307
Crizotinib + OSI-027; first compound 1 µM
  relative viability: 0.286
Carfilzomib + Trametinib; first compound 0.001 µM
  relative viability: 0.961
Carfilzomib + Trametinib; first compound 0.003162 µM
  relative viability: 0.995
Carfilzomib + Trametinib; first compound 0.01 µM
  relative viability: 1.07
Carfilzomib + Trametinib; first compound 0.03162 µM
  relative viability: 1.11
Carfilzomib + Trametinib; first compound 0.1 µM
  relative viability: 0.451
Crizotinib + Pictilisib; first compound 0.01 µM
  relative viability: 0.608
Crizotinib + Pictilisib; first compound 0.03162 µM
  relative viability: 0.492
Crizotinib + Pictilisib; first compound 0.1 µM
  relative viability: 0.52
Crizotinib + Pictilisib; first compound 0.3162 µM
  relative viability: 0.581
Crizotinib + Pictilisib; first compound 1 µM
  relative viability: 0.576
Olaparib + AZD7762; first compound 0.08 µM
  relative viability: 0.638
Olaparib + AZD7762; first compound 0.253 µM
  relative viability: 0.571
Olaparib + AZD7762; first compound 2.53 µM
  relative viability: 0.727
Olaparib + AZD7762; first compound 8 µM
  relative viability: 0.664

## CAL-12T
Crizotinib + OSI-027; first compound 0.01 µM
  relative viability: 0.639
Crizotinib + OSI-027; first compound 0.03162 µM
  relative viability: 0.71
Crizotinib + OSI-027; first compound 0.1 µM
  relative viability: 0.67
Crizotinib + OSI-027; first compound 1 µM
  relative viability: 0.586
Carfilzomib + Trametinib; first compound 0.001 µM
  relative viability: 0.367
Carfilzomib + Trametinib; first compound 0.003162 µM
  relative viability: 0.288
Carfilzomib + Trametinib; first compound 0.01 µM
  relative viability: 0.428
Carfilzomib + Trametinib; first compound 0.03162 µM
  relative viability: 0.167
Carfilzomib + Trametinib; first compound 0.1 µM
  relative viability: 0.11
Crizotinib + Pictilisib; first compound 0.01 µM
  relative viability: 0.345
Crizotinib + Pictilisib; first compound 0.03162 µM
  relative viability: 0.472
Crizotinib + Pictilisib; first compound 0.1 µM
  relative viability: 0.466
Crizotinib + Pictilisib; first compound 1 µM
  relative viability: 0.355
Olaparib + AZD7762; first compound 0.08 µM
  relative viability: 0.757
Olaparib + AZD7762; first compound 0.253 µM
  relative viability: 0.555
Olaparib + AZD7762; first compound 2.53 µM
  relative viability: 0.726
Olaparib + AZD7762; first compound 8 µM
  relative viability: 0.544

## COR-L23
Crizotinib + OSI-027; first compound 0.01 µM
  relative viability: 0.742
Crizotinib + OSI-027; first compound 0.03162 µM
  relative viability: 0.73
Crizotinib + OSI-027; first compound 0.1 µM
  relative viability: 0.674
Crizotinib + OSI-027; first compound 0.3162 µM
  relative viability: 0.76
Crizotinib + OSI-027; first compound 1 µM
  relative viability: 0.723
Carfilzomib + Trametinib; first compound 0.001 µM
  relative viability: 0.565
Carfilzomib + Trametinib; first compound 0.003162 µM
  relative viability: 0.739
Carfilzomib + Trametinib; first compound 0.01 µM
  relative viability: 0.577
Carfilzomib + Trametinib; first compound 0.03162 µM
  relative viability: 0.0935
Carfilzomib + Trametinib; first compound 0.1 µM
  relative viability: 0.0822
Crizotinib + Pictilisib; first compound 0.01 µM
  relative viability: 0.695
Crizotinib + Pictilisib; first compound 0.03162 µM
  relative viability: 0.747
Crizotinib + Pictilisib; first compound 0.1 µM
  relative viability: 0.705
Crizotinib + Pictilisib; first compound 0.3162 µM
  relative viability: 0.771
Crizotinib + Pictilisib; first compound 1 µM
  relative viability: 0.775

## COR-L 105
Crizotinib + OSI-027; first compound 0.01 µM
  relative viability: 0.577
Crizotinib + OSI-027; first compound 0.03162 µM
  relative viability: 0.803
Crizotinib + OSI-027; first compound 0.1 µM
  relative viability: 0.657
Crizotinib + OSI-027; first compound 0.3162 µM
  relative viability: 0.562
Crizotinib + OSI-027; first compound 1 µM
  relative viability: 0.728
Carfilzomib + Trametinib; first compound 0.001 µM
  relative viability: 0.451
Carfilzomib + Trametinib; first compound 0.003162 µM
  relative viability: 0.458
Carfilzomib + Trametinib; first compound 0.01 µM
  relative viability: 0.416
Carfilzomib + Trametinib; first compound 0.03162 µM
  relative viability: 0.35
Carfilzomib + Trametinib; first compound 0.1 µM
  relative viability: 0.328
Crizotinib + Pictilisib; first compound 0.01 µM
  relative viability: 0.353
Crizotinib + Pictilisib; first compound 0.03162 µM
  relative viability: 0.386
Crizotinib + Pictilisib; first compound 0.1 µM
  relative viability: 0.39
Crizotinib + Pictilisib; first compound 0.3162 µM
  relative viability: 0.354
Crizotinib + Pictilisib; first compound 1 µM
  relative viability: 0.403

## Calu-6
Crizotinib + Pictilisib; first compound 0.01 µM
  relative viability: 0.881
Crizotinib + Pictilisib; first compound 0.03162 µM
  relative viability: 0.942
Crizotinib + Pictilisib; first compound 0.3162 µM
  relative viability: 0.937
Crizotinib + Pictilisib; first compound 1 µM
  relative viability: 0.865

## ChaGo-K-1
Crizotinib + OSI-027; first compound 0.01 µM
  relative viability: 0.438
Crizotinib + OSI-027; first compound 0.03162 µM
  relative viability: 0.675
Crizotinib + OSI-027; first compound 0.1 µM
  relative viability: 0.502
Crizotinib + OSI-027; first compound 0.3162 µM
  relative viability: 0.435
Crizotinib + OSI-027; first compound 1 µM
  relative viability: 0.53
Carfilzomib + Trametinib; first compound 0.001 µM
  relative viability: 0.873
Carfilzomib + Trametinib; first compound 0.003162 µM
  relative viability: 0.924
Carfilzomib + Trametinib; first compound 0.01 µM
  relative viability: 0.878
Carfilzomib + Trametinib; first compound 0.03162 µM
  relative viability: 0.47
Carfilzomib + Trametinib; first compound 0.1 µM
  relative viability: 0.168
Crizotinib + Pictilisib; first compound 0.01 µM
  relative viability: 0.736
Crizotinib + Pictilisib; first compound 0.03162 µM
  relative viability: 0.651
Crizotinib + Pictilisib; first compound 0.1 µM
  relative viability: 0.825
Crizotinib + Pictilisib; first compound 1 µM
  relative viability: 0.567
Olaparib + AZD7762; first compound 0.08 µM
  relative viability: 0.955
Olaparib + AZD7762; first compound 0.253 µM
  relative viability: 0.785
Olaparib + AZD7762; first compound 2.53 µM
  relative viability: 0.811
Olaparib + AZD7762; first compound 8 µM
  relative viability: 0.626

## EBC-1
Crizotinib + Pictilisib; first compound 0.01 µM
  relative viability: 0.378
Crizotinib + Pictilisib; first compound 0.03162 µM
  relative viability: 0.215
Crizotinib + Pictilisib; first compound 0.1 µM
  relative viability: 0.159
Crizotinib + Pictilisib; first compound 0.3162 µM
  relative viability: 0.202
Crizotinib + Pictilisib; first compound 1 µM
  relative viability: 0.198
